Laboratory results taken from paper PMC9387934, “Randomized single oral dose phase 1 study of safety, tolerability, and pharmacokinetics of Iminosugar UV-4 Hydrochloride (UV-4B) in healthy subjects” (PLoS Neglected Tropical Diseases, 2022).
“And” between values parts separate entries of the source, which are not always exact repeats. Identical values can stand only once. Like-named read-outs stand apart in the source and are kept apart here.

Assay: Phase 1a single ascending dose study: UV-4 in pooled urine, urinary recovery and renal clearance
Format: in vivo, human
Settings: for dose excreted: human, urine, oral, 48 hours
Method: Serial blood samples were collected at pre-dose (0 hour) and 0.5, 1, 1.5, 2, 2.5, 3, 4, 6, 9, 12, 18, 24, 36, and 48 hours post-dose for assessment of UV-4 concentrations in plasma. Pooled urine samples were collected at pre-dose (-12 to 0 hour) and from 0 to 6, 6 to 12, 12 to 24, and 24 to 48 hours post-dose for assessment of UV-4 concentrations in urine. Plasma and urine concentrations of UV-4 were determined by means of validated, sensitive, and specific high-performance liquid chromatography/tandem mass spectrometric (LC-MS/MS) assays. UV-4 plasma and urine concentrations and PK parameters were listed and summarized by dose, as appropriate. Only the 48 subjects who received active investigational product were included in the PK analysis population.
8.2.3 Specimen Preparation, Handling, and Shipping
8.2.3.1 Instructions for Specimen Preparation, Handling, and Storage
The collected PK blood samples (2 mL) will be placed on ice after blood draw, and within 1 hour centrifuged at room temperature at approximately 3000 revolutions per minute for 15 minutes. Plasma will then be harvested and split into 4 aliquots of approximately 250 μ L and stored frozen at -20°C until shipped.
Urine samples (approximately 10 mL) for determination of UV-4 concentrations in urine will be taken from the total volume provided during each collection period. The total volume of each urine collection will be recorded along with the start/stop time for each urine collection interval.
Analysis of plasma and urine for UV-4 will be performed by the qualified bioanalytical laboratory, Quintiles Bioservices, Inc., Ithaca, New York 14950. Instructions for the proper preparation, handling, storage and shipping of specimens will be provided separately in a study-specific laboratory manual (i.e., Biopacket).
8.2.3.2 Specimen Shipment […]
The following single-dose urine PK parameters will be estimated from the UV-4 urine concentration-time data collected, as appropriate:
Ae Amount of UV-4 excreted in urine unchanged, calculated for each collection interval and cumulatively across intervals fe Fraction of UV-4 excreted in urine unchanged, calculated for each collection interval and cumulatively across intervals […]
Additional UV-4 PK parameters may be calculated at the discretion of the […]
Plasma concentrations and plasma and urine PK parameters will be summarized by treatment using descriptive statistics, as appropriate. Figures for the arithmetic mean (and SD) concentration-time data will be presented for all doses on both a linear and semi-logarithmic scale. Individual concentration-time data will be graphically presented on linear and semi-logarithmic scales. Scatter plots of individual and geometric mean PK parameters versus dose will be presented. Additional graphical presentations of PK data may be added at the discretion of the PK analyst.
Dose proportionality of Cmax, AUC(0-last), and AUC(0-inf) will be assessed graphically and statistically using the power model approach with the logarithm of PK parameters AUC(0-inf) and Cmax as the dependent variables and the logarithm of the dose as the independent variable: ([AUC(0-inf), AUC(0-last), or Cmax]=α *doseβ).
11.4.7 Deviation from Original Analysis Plan
Deviations from the formal statistical analysis plan will be noted in the final Clinical Study

In the case of `COCCCCCCCCCN1C[C@H](O)[C@@H](O)[C@H](O)[C@H]1CO` [UV4], the “CONCENTRATION UV4 in human urine” value (Cohort 1, nominal day 1, nominal hour 0 (pre-dose), individual subjects) is reported as “<LLOQ (0.500) ng/mL”, the “CONCENTRATION UV4 in human urine” value (Cohort 1, nominal day 1, nominal hour 6, individual subjects) is reported as 650 ng/mL and 868 ng/mL and the “CONCENTRATION UV4 in human urine” value (Cohort 1, nominal day 1, nominal hour 12, individual subjects) is reported as 414 ng/mL and 455 ng/mL. For the same compound, the “CONCENTRATION UV4 in human urine” value (Cohort 1, nominal day 2, nominal hour 24, individual subjects) was 99.1 ng/mL and 451 ng/mL, the “CONCENTRATION UV4 in human urine” value (Cohort 1, nominal day 2, nominal hour 48, individual subjects) was 74.6 ng/mL and 166 ng/mL and the “CONCENTRATION UV4 in human urine” value (Cohort 3, nominal day 1, nominal hour 0 (pre-dose), individual subjects) was “<LLOQ (0.500) ng/mL”. For the same compound, the “CONCENTRATION UV4 in human urine” value (Cohort 3, nominal day 1, nominal hour 6, individual subjects) was 6240 ng/mL and 8650 ng/mL and 11700 ng/mL, the “CONCENTRATION UV4 in human urine” value (Cohort 3, nominal day 1, nominal hour 12, individual subjects) was 8820 ng/mL and 2090 ng/mL and 1200 ng/mL and 11200 ng/mL and the “CONCENTRATION UV4 in human urine” value (Cohort 3, nominal day 2, nominal hour 24, individual subjects) was 3300 ng/mL and 754 ng/mL and 614 ng/mL and 3690 ng/mL. The “CONCENTRATION UV4 in human urine” value (Cohort 3, nominal day 2, nominal hour 48, individual subjects) was 721 ng/mL and 248 ng/mL and 147 ng/mL and 900 ng/mL, the “CONCENTRATION UV4 in human urine” value (Cohort 4, nominal day 1, nominal hour 0 (pre-dose), individual subjects) was “<LLOQ (0.500) ng/mL and 1.11 ng/mL” and the “CONCENTRATION UV4 in human urine” value (Cohort 4, nominal day 1, nominal hour 6, individual subjects) was 46400 ng/mL and 48400 ng/mL and 30900 ng/mL and 140000 ng/mL and 54900 ng/mL and 36000 ng/mL. For the same compound, the “CONCENTRATION UV4 in human urine” value (Cohort 4, nominal day 1, nominal hour 12, individual subjects) was 3970 ng/mL and 24500 ng/mL and 26000 ng/mL and 15000 ng/mL and 33100 ng/mL and 11200 ng/mL, the “CONCENTRATION UV4 in human urine” value (Cohort 4, nominal day 2, nominal hour 24, individual subjects) was 1230 ng/mL and 7560 ng/mL and 8120 ng/mL and 8370 ng/mL and 4550 ng/mL and 3920 ng/mL and the “CONCENTRATION UV4 in human urine” value (Cohort 4, nominal day 2, nominal hour 48, individual subjects) was 367 ng/mL and 2090 ng/mL and 1260 ng/mL and 1810 ng/mL and 473 ng/mL and 648 ng/mL. For the same compound, the “CONCENTRATION UV4 in human urine” value (Cohort 5, nominal day 1, nominal hour 0 (pre-dose), individual subjects) was “<LLOQ (0.500) ng/mL”, the “CONCENTRATION UV4 in human urine” value (Cohort 5, nominal day 1, nominal hour 6, individual subjects) was 122000 ng/mL and 104000 ng/mL and 75800 ng/mL and 62800 ng/mL and 65800 ng/mL and 68800 ng/mL and the “CONCENTRATION UV4 in human urine” value (Cohort 5, nominal day 1, nominal hour 12, individual subjects) was 17100 ng/mL and 26900 ng/mL and 16200 ng/mL and 22000 ng/mL and 21200 ng/mL and 18200 ng/mL. The “CONCENTRATION UV4 in human urine” value (Cohort 5, nominal day 2, nominal hour 24, individual subjects) was 5200 ng/mL and 6760 ng/mL and 4560 ng/mL and 7550 ng/mL and 11900 ng/mL and 7200 ng/mL, the “CONCENTRATION UV4 in human urine” value (Cohort 5, nominal day 2, nominal hour 48, individual subjects) was 706 ng/mL and 961 ng/mL and 775 ng/mL and 2920 ng/mL and 2030 ng/mL and 1860 ng/mL and the “CONCENTRATION UV4 in human urine” value (Cohort 6, nominal day 1, nominal hour 0 (pre-dose), individual subjects) was “<LLOQ (0.500) ng/mL”. The “CONCENTRATION UV4 in human urine” value (Cohort 6, nominal day 1, nominal hour 6, individual subjects) was 357000 ng/mL and 97600 ng/mL and 326000 ng/mL and 75900 ng/mL and 182000 ng/mL and 126000 ng/mL, the “CONCENTRATION UV4 in human urine” value (Cohort 6, nominal day 1, nominal hour 12, individual subjects) was 35000 ng/mL and 12100 ng/mL and 104000 ng/mL and 38000 ng/mL and 15200 ng/mL and 19200 ng/mL and the “CONCENTRATION UV4 in human urine” value (Cohort 6, nominal day 2, nominal hour 24, individual subjects) was 6830 ng/mL and 2550 ng/mL and 4060 ng/mL and 7760 ng/mL and 6220 ng/mL and 12700 ng/mL. The “CONCENTRATION UV4 in human urine” value (Cohort 6, nominal day 2, nominal hour 48, individual subjects) was 1470 ng/mL and 442 ng/mL and 1480 ng/mL and 1390 ng/mL and 830 ng/mL.
In the case of `COCCCCCCCCCN1C[C@H](O)[C@@H](O)[C@H](O)[C@H]1CO` [UV-4, N-(9’-methoxynonyl)-1-deoxynojirimycin], the “Time over which UV-4 was quantifiable in pooled urine” value (all doses (3 to 1000 mg), entire collection interval) is reported as 48 h, the dose excreted (3 to 1000 mg dose range, read-out: UV-4 recovery in urine, range of dose group means) is reported as 39.8 to 55.1% and the dose excreted (10 to 1000 mg dose range, read-out: Urinary recovery, range of dose group means) is reported as 46.4 to 55.1%. For the same compound, the “Renal clearance as share of UV-4 apparent systemic clearance” value (in vivo) was no less than 50%.
